Assay results reported in patent US10905736B2, “Ezetimibe-associated ApoA-I mimetic peptides showing enhanced synergism” (The Regents of the University of California, priority 2016, dated 2021).
“Also recorded” adds a separate entry of the source.

What was measured:
LDLR null mice [1] = assay: Plasma lysophosphatidylcholine (LysoPC) levels in LDLR null mice fed Western diet for two weeks; assay type: in vivo, mouse; details: female LDLR null mice age 4-7 months, WD two weeks, Tg6F 0.06% by weight, Ezetimibe 10 mg/kg/day
Method: After feeding the diets for two weeks the mice were bled and plasma lipid levels, plasma levels of lysophosphatidylcholine (LysoPC), and plasma levels of Serum Amyloid A (SAA) were determined as described in Example 3 Methods. Panel A) Plasma total cholesterol levels. Panel B) The decrease in plasma cholesterol compared to WD for each treatment. Panel C) Plasma triglyceride levels. Panel D) The decrease in plasma triglycerides compared to WD for each treatment. Panel E) Plasma HDL-Cholesterol levels. Panel F) The Increase in plasma HDL-Cholesterol compared to WD for each treatment. Panel G) Plasma LysoPC 18:0 levels. Panel H) The decrease in plasma LysoPC 18:0 levels compared to WD for each treatment. Panel I) Plasma LysoPC 18:1 levels. Panel J) The decrease in plasma LysoPC 18:1 levels compared to WD for each treatment. Panel K) Plasma LysoPC 20:4 levels. Panel L) The decrease in plasma LysoPC 20:4 levels compared to WD for each treatment. Panel M) Plasma SAA levels. Panel N) The decrease in plasma SAA levels compared to WD for each treatment. The data shown are Mean±SEM. NS=Not significant.
In experiments in which Tg6F or EV or Ezetimibe were administered as single agents, the EV or Tg6F concentrate was added to WD at 0.06% by weight or Ezetimibe was added to WD to give a final dose of 10 mg/kg body weight/day. The EV or Tg6F concentrate or Ezetimibe was mixed into the diets as described (Chattopadhyay et al. (2015) Pharma. Res. Per. 3: e00154). In experiments in which the EV or Tg6F concentrates and Ezetimibe were both added to WD, each was added separately to WD at the same dose as used for the single agents, and each was mixed into the diet as described (Id.). […]
Plasma lipids, and serum amyloid A (SAA) levels were determined and LC-MS/MS was performed as described (Navab et al. (2012) J. Lipid Res. 53: 437-446; Chattopadhyay et al. (2016) J. Lipid Res. 57: 832-847; Chattopadhyay et al. (2015) Pharma. Res. Per. 3: e00154). […]

[2] = system: Niemann-Pick C1-like 1 (NPC1L1) protein; details: by targeting NPC1L1; cited from earlier work
cholesterol-fed monkeys = details: cited from earlier work
LDLR null mice [3] = assay: Plasma lipid levels (total cholesterol, triglycerides, HDL-cholesterol) in LDLR null mice fed Western diet for two weeks; assay type: in vivo, mouse
Method: Res. Per. 3: e00154; Chattopadhyay et al. (2016) J. Lipid Res. 57: 832-847; PCT Pub. Nos: WO 2013/148214 (PCT/US2013/031037), WO 2015/175968 (PCT/US2015/031134)) (Tg6F), or the mice were fed WD with Ezetimibe added to give a daily dose of 10 mg/kg body weight/day (WD+Ezetimibe), or the mice were fed WD with Tg6F added at 0.06% by weight plus Ezetimibe (each added separately to the diet) to give a daily dose of Ezetimibe of 10 mg/kg body weight; the Tg6F and Ezetimibe were mixed into WD as described previously (Chattopadhyay et al. (2016) J. Lipid. Res. 57: 832-847) (Combined Formulation), or the mice were fed WD to which was added ezetimibe-associated transgenic 6F peptide (Ez-tg6F) at 0.06% Tg6F by weight containing sufficient Ezetimibe to give a daily dose of 10 mg/kg body weight/day that was prepared as described herein. Specifically, the ezetimibe-associated Tg6F peptide (Ez-Tg6F) was made by adding the ezetimibe directly to a solution of ethyl acetate 5% acetic acid that had been incubated overnight at room temperature with freeze-dried tomato powder obtained from transgenic tomatoes expressing the 6F peptide, and which had been removed to a separate vessel as described previously (see, e.g., Chattopadhyay et al. (2015) Pharma. Res. Per. 3: e00154; Chattopadhyay et al. (2016) J. Lipid. Res. 57: 832-847) prior to addition of the ezetimibe. After the addition of the ezetimibe, the solution was incubated at room temperature with gentle mixing for two hours prior to processing and addition of the resulting freeze-dried powder to WD as previously described (Chattopadhyay et al. (2016) J. Lipid. Res. 57: 832-847). After feeding the diets for two weeks, the mice were bled and total plasma cholesterol levels were determined as described (Id.). NS=Not Significant.
LDLR-null mice originally purchased from Jackson Laboratories on a C57BL/6J background were obtained from the breeding colony of the Department of Laboratory and Animal Medicine at the David Geffen School of Medicine at UCLA. The gender and age of the mice are stated in the legend to each figure. The mice were maintained on standard mouse chow (Ralston Purina) before being switched to a Western diet WD (Teklad, Harlan, catalog #TD88137).
In experiments in which Tg6F or EV or Ezetimibe were administered as single agents, the EV or Tg6F concentrate was added to WD at 0.06% by weight or Ezetimibe was added to WD to give a final dose of 10 mg/kg body weight/day. The EV or Tg6F concentrate or Ezetimibe was mixed into the diets as described (Chattopadhyay et al. (2015) Pharma. Res. Per. 3: e00154). […]

For `O=C1[C@H](CC[C@H](O)c2ccc(F)cc2)[C@@H](c2ccc(O)cc2)N1c1ccc(F)cc1` [Ezetimibe, (3R,4S)-1-(4-fluorophenyl)-3-[(3S)-3-(4-fluorophenyl)-3-hydroxypropyl]-4-(4-hydroxyphenyl)azetidin-2-one], the “plasma LysoPC 18:0 levels” value (LDLR null mice [1]; FIG. 16 G-H) was “failed to significantly alter plasma levels of LysoPC 18:0”, the “plasma LysoPC 18:1 levels” value (LDLR null mice [1]; FIG. 16 I-J) was “significantly decreased plasma levels of LysoPC 18:1” and the “plasma LysoPC 20:4 levels” value (LDLR null mice [1]; FIG. 16 K-L) was “significantly reduced plasma levels of LysoPC 20:4”. For the same molecule, the “transintestinal cholesterol efflux (TICE)” value [2] was “promotes TICE”, the “ED50 value (median effective dose) for inhibiting the rise in plasma cholesterol levels” value (cholesterol-fed monkeys) was 0.5 µg/kg/day and the “dyslipidemia (plasma total cholesterol, triglycerides, HDL-Cholesterol)” value (LDLR null mice [3]; female LDLR null mice age 3-6 months, n=20-28 per group, WD two weeks, Tg6F 0.06% by weight, Ezetimibe 10 mg/kg/day, FIG. 15) was “significantly ameliorated dyslipidemia”. For the same molecule, the plasma triglyceride levels (LDLR null mice [3]; statement over the experiments of Example 3 (single agents five out of five, Combined Formulation five out of five, Novel Method three out three experiments)) was “equally effective; also recorded: improved plasma total cholesterol and triglyceride levels”, the “plasma total cholesterol levels” value (LDLR null mice [3]; statement over the experiments of Example 3 (single agents five out of five, Combined Formulation four out of five, Novel Method three out three experiments)) was “equally effective; also recorded: improved plasma total cholesterol and triglyceride levels” and the “plasma HDL-cholesterol levels” value (LDLR null mice [3]; statement over the experiments of Example 3 (single agents four out of four, Combined Formulation four out of four, Novel Method two out of two experiments)) was “equally effective; also recorded: significantly increased the levels”.
